# Test results from patent US11246874B1, “Treatment of COVID-19” (Oxygen Biotech LLC, priority 2021, dated 2022).
# Tests used:
# Assay type in all cases: cell-based
# [1] = tested on: SARS-CoV-2 virus (strain SARS-CoV-2/human/Czech Republic/951/2020); experiment: Antiviral testing in Vero-E6 cells, virus titer by plaque titration; details: Vero-E6, 3.8 μg/μl, MOI 0.1, 48 h
# Procedure: Confluent culture of Vero-E6 cells (ATCC CRL-1586) was used to test for antiviral activity. Cells were cultured in a 96-well microtiter plate (2×10^4 cells per well) for 24 h at 37° C. and 5% CO2. The culture medium was then aspirated and replaced with fresh medium containing the test substance in a concentration range of 0-3.8 μg/μl. At the same time, the cells were infected with the SARS-CoV-2 virus (strain SARS-CoV-2/human/Czech Republic/951/2020) at a multiplicity of infection of 0.1. The thus treated and infected cells were incubated for 48 h at 37° C. and 5% CO2. The medium was then aspirated from the culture wells and the virus titer was determined by plaque titration (Stefanik et al., Microorganisms 2021, 9 (3), 471; https://doi.org/10.3390/microorganisms9030471).
# Results are depicted in FIG. 2.
# [2] = tested on: Vero-E6 cells (ATCC CRL-1586); experiment: Cytotoxicity in Vero-E6 cell culture (Cell Counting Kit-8); details: 48 h incubation, range 0-15.2 μg/μl
# Procedure: The toxicity of the test substance was measured in a culture of Vero-E6 cells (ATCC CRL-1586). Cells were cultured in a 96-well microtiter plate (2×10^4 cells per well) for 24 h at 37° C. and 5% CO2. Then, the test substance was added to the cells in a concentration range of 0-15.2 μg/μ1, and the thus treated cells were subsequently incubated for another 48 h. The viability of the cells was then determined using the Cell Counting Kit-8 kit (Dojindo Molecular Technologies, Munich, Germany), exactly according to the manufacturer's instructions. Results are depicted in FIG. 1. The maximum non-toxic concentration of test substance in Vero-E6 cell culture was 3.8 μg/μl.
# [3] = tested on: SARS-CoV-2 virus, strain S-007; experiment: Infection of Vero cells with SARS-CoV-2; viral RNA (E-gene) in supernatant by 1-step RT-qPCR; details: bazedoxifene 10 μM in DMSO, 2 days of culture
# Procedure: 0.15×10^6/ml Vero cells were infected with SARS-CoV-2 virus, an isolate from the environment, strain designated as S-007, provided by the Těchonin Biological Protection Department. Vero cells were then incubated in Dulbecco's Modified Eagle's Medium (DMEM) with 2% fetal bovine serum (FBS), DMSO 1 μl/ml, or in culture medium with bazedoxifene 10 […] in DMSO dosed from a starting stock solution of 10 mM bazedoxifene in DMSO, corresponding to a bazedoxifene concentration of […]. After 2 days of culture, the virus was quantified in the cell supernatant as follows.
# Viral RNA was detected by 1-step RT-qPCR. Total RNA was isolated from 200 μl of supernatant of SARS-CoV-2 infected cells using magnetic beads. SARS-CoV-2 RNA was determined by amplifying the SARS-CoV-2 E-gene (Generi Biotech) using the SensiFast Probe One-Step Kit (BioLine) and Light Cycler 480 II (Roche). Viral RNA was quantified absolutely using a calibration curve.
substance,measurement,setting,value
bazedoxifene,decrease of titer in the treated group,[1]; versus control group,approximately 1 log10 pfu/ml
same,mean virus titer,[1]; control group 7.4 log10 pfu/ml,6.3 log10 pfu/ml
same,maximum non-toxic concentration,[2],3.8 µg/µL
same,% of DMSO,[3]; E-gene copies,0.17%
same,Fold decrease compared to DMSO,[3]; E-gene copies,578.09
same,E-gene No. of copies of the gene/ml,[3]; cell supernatant,5.39 × 10^7 copies of the gene/ml
